Measurements reported in EPA's ToxRefDB 2.

Tests used:
rat [1] = conditions: Multigenerational reproductive toxicity study, sprague dawley, Oral, Feed, dose end: 2 generation
rat [2] = conditions: Prenatal developmental toxicity study, sprague dawley, Oral, Gavage/Intubation, dose end: 15 GD, group: maternal
dog [3] = conditions: Subchronic oral toxicity in nonrodent, beagle, Capsule, dose end: 13 week, group: systemic
dog [4] = conditions: Chronic toxicity, beagle, Oral, Capsule, dose end: 53 week, group: systemic
rat [5] = conditions: Subchronic oral toxicity in rodents, fischer, Feed, dose end: 3 month, group: systemic, systemic / organ weight / liver / absolute + systemic / organ weight / liver / relative to body weight + systemic / pathology microscopic / …
mouse [6] = conditions: Carcinogenicity, b6c3f1, Oral, Feed, dose end: 2 year, group: systemic
rat [7] = conditions: Subchronic oral toxicity in rodents, sprague dawley, Feed, dose end: 90 day, group: systemic, systemic / in life observation / clinical signs / altered breathing rate + systemic / in life observation / food consumption / food …
dog [8] = conditions: Subchronic oral toxicity in nonrodent, beagle, Feed, dose end: 90 day, group: systemic, systemic / hematology / hematocrit (hct) / hematocrit (hct) + systemic / hematology / hemoglobin (hgb) / hemoglobin (hgb) + systemic / …
mouse [9] = conditions: Carcinogenicity, cd1, Oral, Gavage/Intubation, dose end: 16 PND, group: systemic
mouse [10] = conditions: Carcinogenicity, other, Oral, Gavage/Intubation, dose end: 6 month, group: systemic
mouse [11] = conditions: Carcinogenicity; other; Oral; Gavage/Intubation; dose end: 6 month; group: systemic; systemic / in life observation / clinical signs / abnormal gait + systemic / in life observation / clinical signs / ataxia + systemic / in …
mouse [12] = conditions: Carcinogenicity, other, Oral, Gavage/Intubation, dose end: 6 month, group: systemic; remark: listed apart in the source
rat [13] = conditions: Combined chronic toxicity/carcinogenicity, wistar, Oral, Feed, dose end: 24 month, group: systemic
rat [14] = conditions: Carcinogenicity, fischer, Inhalation, Whole-Body, dose end: 105 week, group: systemic
rat [15] = conditions: Subchronic inhalation toxicity, fischer, Whole-Body, dose end: 14 week, group: systemic
mouse [16] = conditions: Carcinogenicity, b6c3f1, Inhalation, Whole-Body, dose end: 105 week, group: systemic
mouse [17] = conditions: Subchronic inhalation toxicity, b6c3f1, Whole-Body, dose end: 14 week, group: systemic
[18] = group: offspring, systemic / in life observation / body weight / offspring (pup) weight
[19] = group: offspring, systemic / in life observation / body weight / offspring (pup) weight + developmental / offspring survival late / viability index / …
[20] = group: parental, systemic / organ weight / liver / absolute + systemic / organ weight / liver / relative to body weight + systemic / pathology microscopic / …
[21] = group: reproductive, reproductive / offspring survival early / litter size / litter size
[22] = systemic / in life observation / body weight / body weight + systemic / in life observation / body weight / body weight gain + systemic / in…
[23] = systemic / pathology microscopic / spleen / pigmentation
[24] = systemic / pathology microscopic / spleen / pigmentation + systemic / in life observation / clinical signs / emesis + systemic / pathology …
[25] = systemic / pathology microscopic / liver / pigmentation + systemic / clinical chemistry / alanine aminotransferase (alt/sgpt) / alanine …
[26] = systemic / pathology microscopic / liver / hyperplasia + systemic / organ weight / liver / absolute + systemic / organ weight / liver / …
[27] = systemic / in life observation / body weight / body weight gain + systemic / in life observation / clinical signs / dehydration + systemic…
[28] = systemic / in life observation / clinical signs / body temperature + systemic / in life observation / clinical signs / dehydration + …
[29] = systemic / pathology microscopic / liver / hypertrophy
[30] = systemic / clinical chemistry / alanine aminotransferase (alt/sgpt) / alanine aminotransferase (alt/sgpt) + systemic / clinical chemistry / …
[31] = systemic / clinical chemistry / cholesterol / cholesterol + systemic / clinical chemistry / cholesterol / cholesterol, direct ldl + systemic…
[32] = systemic / organ weight / heart / absolute
[33] = systemic / pathology microscopic / kidney / hyperplasia + systemic / pathology microscopic / nose / atrophy + systemic / pathology …
[34] = systemic / pathology microscopic / nose / atrophy + systemic / pathology microscopic / nose / hyperplasia + systemic / pathology microscopic…
[35] = systemic / in life observation / body weight / body weight + systemic / in life observation / body weight / body weight gain + systemic / …
[36] = systemic / pathology microscopic / nose / metaplasia
[37] = systemic / in life observation / body weight / body weight + systemic / pathology microscopic / eye / degeneration + systemic / pathology …
[38] = systemic / in life observation / body weight / body weight + systemic / pathology microscopic / nose / degeneration + systemic / pathology …
[39] = systemic / organ weight / heart / absolute + systemic / pathology microscopic / nose / degeneration + systemic / pathology microscopic / …
[40] = systemic / pathology microscopic / nose / hyaline droplet + systemic / pathology microscopic / nose / degeneration

SMILES: CCCCN(CC)c1c([N+](=O)[O-])cc(C(F)(F)F)cc1[N+](=O)[O-] [Benfluralin]
- LEL (rat [1]; [18]): 74.4 mg/kg/day
- LOAEL (rat [1]; [18]): 74.4 mg/kg/day
- NEL (rat [1]; [19]): 7.3 mg/kg/day
- NOAEL (rat [1]; [19]): 7.3 mg/kg/day
- LEL (rat [1]; [20]): 68.1 mg/kg/day
- LOAEL (rat [1]; [20]): 68.1 mg/kg/day
- NEL (rat [1]; [20]): 7.2 mg/kg/day
- NOAEL (rat [1]; [20]): 7.2 mg/kg/day
- LEL (rat [1]; [21]): 401 mg/kg/day
- LOAEL (rat [1]; [21]): 401 mg/kg/day
- NEL (rat [1]; [21]): 74.4 mg/kg/day
- NOAEL (rat [1]; [21]): 74.4 mg/kg/day
- LOAEL (rat [2]; systemic / in life observation / body weight / body weight + systemic / in life observation / body weight / body weight gain): 1000 mg/kg/day
- NEL (rat [2]; [22]): 225 mg/kg/day
- NOAEL (rat [2]; [22]): 475 mg/kg/day
- LEL (rat [2]; systemic / in life observation / body weight / body weight + systemic / in life observation / food consumption / food consumption): 475 mg/kg/day
- LEL (dog [3]; [23]): 25 mg/kg/day
- LOAEL (dog [3]; [23]): 25 mg/kg/day
- NEL (dog [3]; [24]): 5 mg/kg/day
- NOAEL (dog [3]; [24]): 5 mg/kg/day
- LOAEL (dog [4]; systemic / pathology microscopic / liver / pigmentation): 25 mg/kg/day
- LEL (dog [4]; [25]): 25 mg/kg/day
- NEL (dog [4]; [25]): 5 mg/kg/day
- NOAEL (dog [4]; [25]): 5 mg/kg/day
- LEL (rat [5]): 16.8 mg/kg/day
- LOAEL (rat [5]): > 522 mg/kg/day
- NEL (rat [5]): 3.23 mg/kg/day
- NOAEL (rat [5]): ≥ 522 mg/kg/day
- LOAEL (mouse [6]; systemic / pathology microscopic / liver / hyperplasia): 185 mg/kg/day
- LEL (mouse [6]; [26]): 185 mg/kg/day
- NEL (mouse [6]; [26]): 36.4 mg/kg/day
- NOAEL (mouse [6]; [26]): 36.4 mg/kg/day

SMILES: O.O.O.O.O.O.O.O.O.O.[Na+].[Na+].[O-]B1OB2OB([O-])OB(O1)O2 [Borax]
- LEL (rat [7]): 770 mg/kg/day
- LOAEL (rat [7]): 770 mg/kg/day
- NEL (rat [7]): 232 mg/kg/day
- NOAEL (rat [7]): 232 mg/kg/day
- LEL (dog [8]): 192 mg/kg/day
- LOAEL (dog [8]): 192 mg/kg/day
- NEL (dog [8]): 22 mg/kg/day
- NOAEL (dog [8]): 22 mg/kg/day

SMILES: CCOC(=O)C(C)(C)Oc1ccc(Cl)cc1 [Clofibrate]
- LOAEL (mouse [9]; [27]): > 500 mg/kg/day
- NEL (mouse [9]; [27]): 100 mg/kg/day
- NOAEL (mouse [9]; [27]): ≥ 500 mg/kg/day
- LEL (mouse [9]; systemic / in life observation / clinical signs / palpable mass): 250 mg/kg/day
- LOAEL (mouse [10]; [28]): > 650 mg/kg/day
- NOAEL (mouse [10]; [28]): ≥ 650 mg/kg/day
- LEL (mouse [10]; [29]): 50 mg/kg/day
- NEL (mouse [10]; [29]): < 50 mg/kg/day
- LEL (mouse [11]): 200 mg/kg/day
- LOAEL (mouse [11]): > 500 mg/kg/day
- NEL (mouse [11]): 50 mg/kg/day
- NOAEL (mouse [11]): ≥ 500 mg/kg/day
- LOAEL (mouse [12]; [30]): > 250 mg/kg/day
- NOAEL (mouse [12]; [30]): ≥ 250 mg/kg/day
- LEL (mouse [12]; [31]): 50 mg/kg/day
- NEL (mouse [12]; [31]): < 50 mg/kg/day

SMILES: NCCO.O=C(Nc1ccc([N+](=O)[O-])cc1Cl)c1cc(Cl)ccc1O [Clonitralid]
- LOAEL (rat [13]; systemic / in life observation / body weight / body weight gain): 410 mg/kg/day
- NOAEL (rat [13]; systemic / in life observation / body weight / body weight gain + systemic / clinical chemistry / alanine aminotransferase (alt/sgpt) / …): 100 mg/kg/day
- LEL (rat [13]; [32]): 20 mg/kg/day
- NEL (rat [13]; [32]): < 20 mg/kg/day

SMILES: OCc1ccco1 [Furfuryl alcohol]
- LOAEL (rat [14]; [33]): > 32 ppm
- NOAEL (rat [14]; [33]): ≥ 32 ppm
- LEL (rat [14]; [34]): 2 ppm
- NEL (rat [14]; [34]): < 2 ppm
- LOAEL (rat [15]; [35]): > 32 ppm
- NOAEL (rat [15]; [35]): ≥ 32 ppm
- LEL (rat [15]; [36]): 2 ppm
- NEL (rat [15]; [36]): < 2 ppm
- LOAEL (mouse [16]; [37]): > 32 ppm
- NOAEL (mouse [16]; [37]): ≥ 32 ppm
- LEL (mouse [16]; [38]): 2 ppm
- NEL (mouse [16]; [38]): < 2 ppm
- LOAEL (mouse [17]; [39]): > 32 ppm
- NOAEL (mouse [17]; [39]): ≥ 32 ppm
- LEL (mouse [17]; [40]): 2 ppm
- NEL (mouse [17]; [40]): < 2 ppm
